We go through 30 compounds from ChEMBL document CHEMBL1127848, “Three-dimensional quantitative structure-activity relationship of human immunodeficiency virus (I) protease inhibitors. 2. Predictive power using limited exploration of alternate binding modes” (J Med Chem, 1994).

The assay addresses Human immunodeficiency virus type 1 protease (Human immunodeficiency virus 1, UniProt Q72874). As to the kind of experiment: Inhibitory activity against HIV-1 Protease.

The compound `CCCNC(=O)N(CC(C)C)CC(O)[C@H](Cc1ccccc1)NC(=O)[C@H](CC(N)=O)NC(=O)OCc1ccccc1` (stereo not given in full) showed an IC50 of 0.543 µM.

In turn, `CC[C@H](C)[C@H](NC(=O)[C@H](C(C)C)[C@@H](O)[C@H](O)[C@H](CC1CCCCC1)NC(=O)C1CCCCC1)C(=O)NCc1ccccn1` showed an IC50 of 0.0495 µM.

`C[C@H](c1ccccc1)N(CC(O)[C@H](Cc1ccccc1)NC(=O)[C@H](CC(N)=O)NC(=O)OCc1ccccc1)C(=O)NC(C)(C)C` (stereo not given in full) gave an IC50 of 6.5 µM. This IC50 lies about 130-fold higher than the previous one.

For the compound `CC(C)[C@@H](C(=O)N[C@H]1Cc2ccccc2[C@H]1O)[C@@H](O)[C@H](O)[C@H](CC1CCCCC1)NC(=O)c1ncccc1OCOc1ccccc1`, inhibition was half-maximal at 0.54 µM (IC50).

In the case of `CCNC(=O)N(CC(C)C)CC(O)[C@H](Cc1ccccc1)NC(=O)[C@H](CC(N)=O)NC(=O)OCc1ccccc1` (stereo not given in full), the IC50 is 0.33 µM.

For the compound `CC(C)CN(CC(O)[C@H](Cc1ccccc1)NC(=O)[C@H](CC(N)=O)NC(=O)OCc1ccccc1)C(=O)NC(C)C` (stereo not given in full), the half-maximal inhibitory concentration (IC50) was 0.26 µM.

With `CC(C)(C)NC(=O)N(CC(O)[C@H](Cc1ccccc1)NC(=O)[C@H](CC(N)=O)NC(=O)OCc1ccccc1)C1CCCCC1` (stereo not given in full), it took 0.029 µM to reach half-maximal inhibition (IC50).

`CCCCNC(=O)N(CC(C)C)CC(O)[C@H](Cc1ccccc1)NC(=O)[C@H](CC(N)=O)NC(=O)c1ccc2ccccc2n1` (stereo not given in full) had an IC50 of 0.126 µM.

Consider `CC(C)[C@@H](C(=O)N[C@H]1Cc2ccccc2[C@H]1O)[C@@H](O)[C@H](O)[C@H](CC1CCCCC1)NC(=O)c1ncccc1OCSc1ccccc1`, for which the half-inhibitory concentration (IC50) was 2.4 µM.

`CC(C)[C@@H](C(=O)N[C@H]1Cc2ccccc2[C@H]1O)[C@@H](O)[C@H](O)[C@H](CC1CCCCC1)NC(=O)c1ccccc1OCOc1ccccc1` had an IC50 of 0.54 µM.

On to `CC[C@H](C)[C@H](NC(=O)[C@H](C(C)C)C(O)[C@H](O)[C@H](CC1CCCCC1)NC(=O)c1ccccc1OCOc1ccccc1)C(=O)NCc1nc2ccccc2[nH]1` (stereo not given in full), for which the IC50 is 0.018 µM. Compared with the last compound, the IC50 is about 30-fold lower.

Consider `CC(C)(C)NC(=O)N(Cc1ccncc1)CC(O)[C@H](Cc1ccccc1)NC(=O)[C@H](CC(N)=O)NC(=O)c1ccc2ccccc2n1` (stereo not given in full), for which inhibition was half-maximal at 0.019 µM (IC50).

`CC(c1ccccc1)N(CC(O)[C@H](Cc1ccccc1)NC(=O)[C@H](CC(N)=O)NC(=O)OCc1ccccc1)C(=O)NC(C)(C)C` (stereo not given in full) had an IC50 of 5.09 µM.

As for `CC[C@H](C)[C@H](NC(=O)[C@H](C(C)C)C(O)[C@H](O)[C@H](CC1CCCCC1)NC(=O)c1ncccc1OCOc1ccccc1)C(=O)NCc1nc2ccccc2[nH]1` (stereo not given in full), the 50% inhibitory concentration (IC50) was 0.54 µM.

As for `CC(C)[C@@H](C(=O)N[C@H]1Cc2ccccc2[C@H]1O)[C@@H](O)[C@H](O)[C@H](CC1CCCCC1)NC(=O)c1ccccc1OCSc1ccccc1`, the IC50 is 0.45 µM.

The compound `CC(C)CCN(CC(O)[C@H](Cc1ccccc1)NC(=O)[C@H](CC(N)=O)NC(=O)OCc1ccccc1)C(=O)NC(C)(C)C` (stereo not given in full) showed an IC50 of 0.013 µM.

Compound `CC[C@H](C)[C@H](NC(=O)[C@H](C(C)C)[C@@H](O)[C@H](O)[C@H](CC1CCCCC1)NC(=O)c1cccc(C)c1OCOc1ccccc1)C(=O)NCc1nc2ccccc2[nH]1` showed an IC50 of 0.108 µM.

On to `CC[C@H](C)[C@H](NC(=O)[C@H](C(C)C)[C@@H](O)[C@H](O)[C@H](CC1CCCCC1)NC(=O)c1ccccc1)C(=O)NCc1nc2ccccc2[nH]1`, for which the IC50 is 0.0809 µM.

Compound `CNC(=O)N(CC(C)C)CC(O)[C@H](Cc1ccccc1)NC(=O)[C@H](CC(N)=O)NC(=O)OCc1ccccc1` (stereo not given in full) gave an IC50 of 1.5 µM. Against the preceding compound, the IC50 is about 19-fold higher.

On to `CC(C)CN(CC(O)[C@H](Cc1ccccc1)NC(=O)[C@H](CC(N)=O)NC(=O)OCc1ccccc1)C(=O)NC(C)(C)C` (stereo not given in full), for which the IC50 is 0.035 µM.

Regarding `CC(C)(C)NC(=O)N(CC(O)[C@H](Cc1ccccc1)NC(=O)[C@H](CC(N)=O)NC(=O)c1ccc2ccccc2n1)C1CCCCC1` (stereo not given in full), it took 0.005 µM to reach half-maximal inhibition (IC50).

Compound `CC(C)[C@@H](C(=O)N[C@H]1Cc2ccccc2[C@H]1O)[C@@H](O)[C@H](O)[C@H](CC1CCCCC1)NC(=O)c1ccccc1` had an IC50 of 0.036 µM.

`CCCCNC(=O)N(CC(C)C)CC(O)[C@H](Cc1ccccc1)NC(=O)[C@H](CC(N)=O)NC(=O)OCc1ccccc1` (stereo not given in full) showed an IC50 of 0.942 µM.

`CC[C@H](C)[C@H](NC(=O)[C@H](C(C)C)[C@@H](O)[C@H](O)[C@H](CC1CCCCC1)NC(=O)c1ccccc1OCSc1ccccc1)C(=O)NCc1nc2ccccc2[nH]1` gave a half-maximal inhibitory concentration (IC50) of 0.0112 µM.

Compound `CC(C)CCN(CC(O)[C@H](Cc1ccccc1)NC(=O)[C@H](CC(N)=O)NC(=O)c1ccc2ccccc2n1)C(=O)NC(C)(C)C` (stereo not given in full) showed a 50% inhibitory concentration (IC50) of 0.003 µM.

Take `CC(C)CN(CC(O)[C@H](Cc1ccccc1)NC(=O)[C@H](CC(N)=O)NC(=O)c1ccc2ccccc2n1)C(=O)NC(C)(C)C` (stereo not given in full): the IC50 was 0.00601 µM.

As for `CC(C)(C)NC(=O)N(Cc1ccccc1)CC(O)[C@H](Cc1ccccc1)NC(=O)[C@H](CC(N)=O)NC(=O)OCc1ccccc1` (stereo not given in full), the 50% inhibitory concentration (IC50) is 0.019 µM.

As to `CC[C@H](C)[C@H](NC(=O)[C@H](C(C)C)[C@@H](O)[C@H](O)[C@H](CC1CCCCC1)NC(=O)c1ncccc1OCSc1ccccc1)C(=O)NCc1nc2ccccc2[nH]1`, the 50% inhibitory concentration (IC50) is 0.315 µM.

`CC(C)(C)NC(=O)N(Cc1ccccc1)CC(O)[C@H](Cc1ccccc1)NC(=O)[C@H](CC(N)=O)NC(=O)c1ccc2ccccc2n1` (stereo not given in full): the half-maximal inhibitory concentration (IC50) was 0.003 µM.

`CC(C)(C)NC(=O)N(Cc1ccncc1)CC(O)[C@H](Cc1ccccc1)NC(=O)[C@H](CC(N)=O)NC(=O)OCc1ccccc1` (stereo not given in full) showed an IC50 of 0.105 µM.

The term IC50 denotes the concentration that inhibits the measured activity by half.
